One compound from US12144788B2, “Visual cycle modulators” (CASE WESTERN RESERVE UNIVERSITY, priority 2017, dated 2024) can be followed below.

One data set deals with C57BL/6J mice. The data set is described as follows: in vivo dark-adapted ERG recordings after bleach. On the set-up: species or system mouse. The following applies: gavage 1 day before bleach, doses indicated effective by retinoid analysis. The method, then: FIG. 5 illustrates ERG responses of mice treated with visual cycle modulators. Oral gavage was used to administer vehicle or MB compounds to mice 24 h prior to 10 min light exposure followed by 6 h of dark adaptation. Dark-adapted ERGs were obtained to strobe flash stimuli.
C57BL/6J mice aged 1.5-4 months were anesthetized with ketamine (80 mg/kg) and xylazine (16 mg/kg) after overnight dark adaptation. Mydriatic eye drops were used to dilate the pupil (1% tropicamide; 2.5% phenylephrine). ERGs were obtained using an active electrode that contacted the corneal surface; needle electrodes placed in the cheek and tail provided reference and ground leads, respectively. Strobe stimuli were presented to the dark-adapted eye in an LKC (Gaithersburg, MD) ganzfeld. Responses were amplified, averaged and stored using an LKC UTAS E-3000 signal averaging system.
Baseline dark-adapted ERGs were recorded from each mouse. After a minimum 1 day interval, MB compounds or vehicle were administered by gavage at 9 a.m. The next morning, mydriatic eye drops were used to dilate the pupils and mice were then exposed to a 10-minute 10,000 lux bleach. Mice were dark-adapted for 6 hours, after which ERGs were recorded.
We next examined the impact of these compounds on retinal function, measured using the electroretinogram (ERG). FIG. 5 presents a family of dark-adapted ERGs measured 6 hours after mice underwent a 95% bleach presented 1 day following gavage administration of vehicle or MB compound molecules at doses indicated to be effective by retinoid analysis. […] In comparison, mice administered with MB compound molecules had had reduced amplitude ERGs indicative of incomplete bleaching recovery. […] In response to higher luminance stimuli, reproducible responses were observed. That these reflect dark-adapted cone-mediated responses is supported by their similarity to responses obtained from transducin KO mice which lack rod-mediated activity, while retaining normal cone-mediated responses, and have a very similar ERG phenotype.

The nature of data set [1]: identification of atRAL Schiff base conjugates with MB compounds in mouse eyes. The following applies: Abca4−/−Rdh8−/− mice, 50 mg/kg oral gavage, bright light exposure 10 min; mass spectrometry versus standards. The data set is classed as in vivo. The method, then:
FIGS. 6(A-B) illustrate identification of retinal Schiff base conjugates in Abca4^−/− Rdh8^−/− mice treated with MB-005 and MB-006. Following drug administration, mice were exposed to intense light for 10 min. After a 30 min recovery under darkness, animals were sacrificed and retinoids were extracted from the eyes. (A, B) Shown in the top panels are selective ion chromatograms for MB-005-retinal conjugates (A, at m/z=572.6) and MB-006-retinal conjugates (B, at m/z=588.6). Panels on the bottom show the mass spectra of the peaks coinciding with the retention times of their authentic standards. The insets display the MS/MS fragmentation patterns of the two imines, which were identical to the corresponding standards.
MB-005 or MB-006 (50 mg/kg) were administrated by oral gavage to Abca4^−/−Rdh8^−/− mice 24 h prior to light exposure. After exposure to fluorescent light for 10 min, animals were euthanized and their eyes were collected and homogenized in acetonitrile. After centrifugation, the supernatant was concentrated to 400 μl under vacuum. […]
With the effects of these compounds on visual cycle function established we next sought to examine their ability to form retinal-Schiff base conjugates in vivo. […] Retinoids were extracted and analyzed by mass spectrometry. […]

The test system of the next data set is Abca4−/−Rdh8−/− mice. The data set is described as follows: protection against light-induced retinal degeneration (OCT, ONL thickness). The data set is classed as in vivo, mouse. The method, then:
FIGS. 7(A-B) illustrate protective effects of MB compounds against light-induced retinal degeneration in Abca4^−/−Rdh8^−/− mice. Drugs were administrated at the indicated doses to 4-6 week-old Abca4^−/−Rdh8^−/− mice (weight ˜20 g) by oral gavage. After a 24 h dark adaptation, mice were exposed to 10,000 lux light for 30 min and then returned to a dark environment for 3 days. (A) Representative OCT images of mice treated with MB compounds. A dramatic decrease in the ONL indicates advanced retinal degeneration. The black scale beside the DMSO image represents 50 μm. (B) Retinal protective effects exerted by MB compounds as quantified by average ONL thickness. Only non-scattering ONL layers were measured. For images in which the ONL layer boundary was obscured due to light scattering, the ONL length was recorded as 0 μm. Error bars represent standard deviations; n=3-5 for each group.
Abca4^−/−Rdh8^−/− mice on a C57BL/6J background were generated as previously described. Male and female WT mice with C57BL/6J backgrounds were obtained from The Jackson Laboratory. Abca4^−/−Rdh8^−/− mice used in this study were homozygous for the Leu450 allele of Rpe65 as determined by a genotyping protocol published previously and free of Crb1/rd8 and rd/rd mutations Animals were housed either in the animal facility at the Case Western Reserve University School of Medicine, where they received a standard chow diet (LabDiet 5053) and were maintained under a 12-h light (˜300 lux) and 12-h dark cycle or at the Cole Eye Institute animal facility where they were. Mice were dark adapted overnight prior to all experiments. A cohort of Rdh8^−/−Abca4^−/− or C57BL/6J mice was used when they reached the age of 1 to 2 months, and both sexes were used evenly. All tested primary amines were suspended in 100 μl soybean oil with less than 10% (v/v) DMSO and were administered by oral gavage with a 22-gauge feeding needle. Experimental manipulations in the dark were done under dim red light transmitted through a Kodak No. 1 Safelight Filter (transmittance >560 nm).
After dark adaptation for 24 h, Abca4^−/−Rdh8^−/− mice with pupils dilated by 1% tropicamide were exposed to fluorescent light (10,000 lux; 150 W spiral lamp; Commercial Electric) for 30 min in a white paper bucket (Papersmith) and then kept in the dark for an additional 3 days. Development of retinal degeneration was then determined by ultra-high-resolution spectral domain OCT (SD-OCT; Bioptigen) and ERG as previously described.
To examine the ability of […] cause retinal damage in the absence of treatment with protective agents. Three days later retinas were imaged in vivo by optical coherence tomography, with preservation of outer nuclear layer thickness and light scattering properties serving as markers for retinal health. MB-001, which is capable of preventing light-induced retinal degeneration through both direct RPE65 inhibition as well as retinal sequestration served as a positive control for these experiments.

A further data set deals with RPE65 (Bos taurus, UniProt Q28175). Description: in vitro retinoid isomerase activity assay with bovine RPE microsomes. The following applies: up to concentrations of 50 μM.
RPE65, sequence (Q28175 whole entry): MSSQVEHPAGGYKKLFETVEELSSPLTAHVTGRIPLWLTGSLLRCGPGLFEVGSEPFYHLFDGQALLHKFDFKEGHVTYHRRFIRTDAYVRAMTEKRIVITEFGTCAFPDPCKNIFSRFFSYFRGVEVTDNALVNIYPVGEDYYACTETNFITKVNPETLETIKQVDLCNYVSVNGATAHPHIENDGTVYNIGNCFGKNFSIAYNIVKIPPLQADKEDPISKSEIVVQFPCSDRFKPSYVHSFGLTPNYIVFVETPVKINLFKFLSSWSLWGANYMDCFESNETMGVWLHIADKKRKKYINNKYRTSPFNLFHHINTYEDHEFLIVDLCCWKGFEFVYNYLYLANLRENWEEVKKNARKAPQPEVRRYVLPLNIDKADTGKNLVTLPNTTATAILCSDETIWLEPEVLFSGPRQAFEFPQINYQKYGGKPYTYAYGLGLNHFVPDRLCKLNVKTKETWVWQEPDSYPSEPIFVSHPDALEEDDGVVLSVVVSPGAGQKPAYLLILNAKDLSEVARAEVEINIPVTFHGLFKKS

Method for RPE65: Primary amines were pre-incubated with bovine RPE microsomes at room temperature for 5 min, then all-trans-retinol was added and the mixtures were incubated at 37° C. All incubation mixtures were quenched by the addition of methanol after 1 h of incubation. Inhibition of RPE65 enzymatic activity was measured as a decline in 11-cis-retinol production.
Synthesized primary amine (1 μl in DMF, with the final concentration ranging between 50 nM and 50 μM) was added to 10 mM Bis-Tris propane/HCl buffer, pH 7.4, containing 150 μg RPE microsomes, 1% BSA, 1 mM disodium pyrophosphate, and 20 μM aporetinaldehyde-binding protein 1 (CRALBP). The resulting mixture was pre-incubated at room temperature for 5 min. Then, all-trans-retinol (1 μl in DMF, at a final concentration of 20 μM) was added. The resulting mixture was incubated at 37° C. for 1 h. The reaction was quenched by adding 300 μl methanol, and products were extracted with 300 μl hexanes. Production of 11-cis-retinol was quantified by normal-phase HPLC with 10% (v/v) EtOAc in hexanes as the eluent at a flow rate of 1.4 ml/min. Retinoids were detected by monitoring their absorbance at 325 nm and quantified based on a standard curve representing the relationship between the amount of synthetic 11-cis-retinol standard and the area under the corresponding chromatographic peak.
To test these structural predictions, we examined the inhibitory activity of the compounds against RPE65 activity in an in vitro retinoid isomerase assay using bovine RPE microsomes as the enzyme source.

Regarding `CC(C)c1cc(OCC2CCCCC2)cc(C(O)CCN)c1` (stereo not drawn) [MB-005, 3-Amino-1-(3-(cyclohexylmethoxy)-5-isopropylphenyl)propan-1-ol], the “dark-adapted ERG 6 hours after 95% bleach” value in the data set on C57BL/6J mice is “less incomplete recovery”. For the same compound, the “retinal Schiff base adducts in eye extracts” value in data set [1] was “contained compounds matching the expected molecular weight of the respective Schiff base adducts”. The “protective effect compared to the MB-001 control” value was roughly 50% in the data set on Abca4−/−Rdh8−/− mice (0.5 mg/mouse oral gavage 24 h before light) and roughly 80% in the data set on Abca4−/−Rdh8−/− mice (doubling of 0.5 mg/mouse (1 mg/mouse), oral gavage 24 h before light). Further, the “protection against light-induced retinal degeneration” value in the data set with Abca4−/−Rdh8−/− mice (2 mg/mouse oral gavage 24 h before light) is “fully protected”. Moreover, the “inhibition against retinoid isomerization” value against RPE65 is recorded as “minimal or no inhibition”.
